In experiment [1] the test system is picornaviruses (CVB1, HRV-A2, HRV-A23, EV-68). The experiment is described as follows: Anti-picornavirus cytopathic effect (CPE) reduction assay on HeLa H1 cells. The class given is cell-based. To be noted: Enterovirus B, HeLa H1 cells, 48 h, category from averaging the EC50 values from four picornaviruses (CVB1, HRV-A2, HRV-A23, EV68), read-out: EC50 values of the compounds determined in the anti-picornavirus assay. The essentials:
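HeLa H1 cells pre-treated 2 h with serially diluted compound in DMEM/2% FBS, then infected at an MOI giving full CPE in 2 days. After 48 h at 37° C, viability read by CellTiterBlue fluorescence (ex 560/em 590 nm), normalised to infected and uninfected vehicle controls; EC50 by non-linear regression, category from mean of four viruses.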

For the next experiment, the target named is T1, PLA2G16 (Homo sapiens, UniProt P53816).
T1 construct: Hexa-His (N); made in house; host or cells: E. coli BL21(DE3)
T1 sequence (P53816 1-162): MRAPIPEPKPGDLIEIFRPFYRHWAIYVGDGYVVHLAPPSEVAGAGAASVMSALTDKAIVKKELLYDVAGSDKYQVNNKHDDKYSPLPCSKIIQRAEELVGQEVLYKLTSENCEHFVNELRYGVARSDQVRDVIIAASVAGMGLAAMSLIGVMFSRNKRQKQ
The experiment in a line: Enzyme activity assay for PLA2G16 (Red/Green BODIPY PC-A2 fluorescence). The class given is biochemical. To be noted: His-tagged PLA2G16, 4 min pre-incubation, 2 nM to 50 μM; read-out: IC50 values of the compounds determined in the enzyme activity assay for PLA2G16. Put shortly: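 N-His-tagged human PLA2G16 from E. coli, Ni-NTA purified. Pre-incubated 4 min with compound (2 nM–50 μM final) in pH 8.5 Tris/NaCl buffer with 5 mM glutathione, then BODIPY PC-A2 in DOPC/DOPG/cholesterol vesicles added. Fluorescence (ex 480/em 530 nm) increase over 10 min taken as activity; IC50 by non-linear regression.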

Structures are written as SMILES. Where two headings read alike, the source gives them in different places.

Usually EC50 stands for the concentration that produces a half-maximal response. A word on the IC50: it is the point on the concentration scale where inhibition reaches its midpoint. With `O=C(N[C@H]1CCCC[C@H]1O)C(=O)[C@H]1CCC(=O)N1Cc1ccccc1` (single isomer, unassigned) [FP 273], the concentration giving a half-maximal response (EC50) in experiment [1] (HeLa H1, 48 h) lay in the range of 1000 to 10000 nM. Also, at PLA2G16, the half-inhibitory concentration (IC50) fell in the range of 1000 to 10000 nM.
As for `COc1ccc(F)cc1N(C=O)C(C)C(=O)C(=O)NCc1cccc(Cl)c1` (stereo not drawn) [FP 7, N-[(3-Chlorophenyl)methyl]-3-[N-(5-fluoro-2-methoxyphenyl)formamido]-2-oxobutanamide], in experiment [1] (HeLa H1, 48 h), the EC50 was less than 1000 nM. The IC50 on PLA2G16 is less than 1000 nM.
With `O=C(NC1CC1)C(=O)[C@H]1CCC(=O)N1Cc1ccccc1`, in experiment [1] (CVB1|EV68|HRVA2|HRVA23, HeLa H1, 48 h), the EC50 is less than 1000 nM. Moreover, the IC50 on PLA2G16 was less than 1000 nM.
`CCC(C(=O)C(=O)NCC1CCCCC1)N(C=O)CC1CCN(C(=O)OC(C)(C)C)CC1` (stereo not drawn) [FP 59, tert-Butyl 4-[(N-{1-[(cyclohexylmethyl)carbamoyl]-1-oxobutan-2-yl} formamido)methyl]-piperidine-1-carboxylate]: the EC50 in experiment [1] (HeLa H1, 48 h) was in the range of 1000 to 10000 nM. The 50% inhibitory concentration (IC50) on PLA2G16 is less than 1000 nM.
In the same order, the values of `Cc1ccc(C(=O)NC(C)C(=O)C(=O)NCC2CC2)cc1` (stereo not drawn) [FP 159, N-(Cyclopropylmethyl)-3-[(4-methylphenyl)formamido]-2-oxobutanamide] are greater than 10000 nM and less than 1000 nM.
For `CC(C)NC(=O)C(=O)C(C)N(C=O)Cc1ccccc1` (stereo not drawn) [FP 57, 3-(N-Benzylformamido)-2-oxo-N-(propan-2-yl)butanamide], in experiment [1] (HeLa H1, 48 h), the EC50 lay in the range of 1000 to 10000 nM. Besides, the half-maximal inhibitory concentration (IC50) at PLA2G16 was less than 1000 nM.
As to `CCC(C(=O)C(=O)NCC1CCCCC1)N(C=O)C1CCCCC1` (stereo not drawn) [FP 60, 3-(N-Cyclohexylformamido)-N-(cyclohexylmethyl)-2-oxopentanamide], in experiment [1] (HeLa H1, 48 h), the EC50 was in the range of 1000 to 10000 nM. For the same compound, at PLA2G16, the IC50 was less than 1000 nM.
Turning to `O=C(N[C@@H]1C[C@@H]1F)C(=O)C1N(Cc2ccccc2)C(=O)CC12CC2` (stereo partly drawn) [FP 346, 2-{5-Benzyl-6-oxo-5-azaspiro[2.4]heptan-4-yl}-N-[(1R,2S)-2-fluorocyclopropyl]-2-oxoacetamide], the EC50 in experiment [1] (HeLa H1, 48 h) was less than 1000 nM. For the same compound, the IC50 on PLA2G16 is less than 1000 nM.
For the compound `O=C(NCC1CC1)C(=O)C1CCCC(=O)N1Cc1ccccc1` (stereo not drawn) [FP 204, 2-(1-Benzyl-6-oxopiperidin-2-yl)-N-(cyclopropylmethyl)-2-oxoacetamide], the EC50 in experiment [1] (HeLa H1, 48 h) is 1000 to 10000 nM. Moreover, the half-inhibitory concentration (IC50) on PLA2G16 is less than 1000 nM.
In the case of `COCC(=O)N(c1ccccc1OC)C(C)C(=O)C(=O)NCc1cccc(Cl)c1` (stereo not drawn) [FP 175, N-[(3-Chlorophenyl)methyl]-3-[2-methoxy-N-(2-methoxyphenyl)acetamido]-2-oxobutanamide], in experiment [1] (HeLa H1, 48 h), the EC50 was 1000 to 10000 nM. The IC50 on PLA2G16 is less than 1000 nM.
With `COc1ccccc1N(C=O)C(C)C(=O)C(=O)NCc1c(C)cccc1C` (stereo not drawn) [FP 99, N-[(2,6-Dimethylphenyl)methyl]-3-[N-(2-methoxyphenyl)formamido]-2-oxobutanamide], the 50% effective concentration (EC50) in experiment [1] (HeLa H1, 48 h) lay in the range of 1000 to 10000 nM. For the same compound, the half-maximal inhibitory concentration (IC50) at PLA2G16 is less than 1000 nM.
In the case of `O=C(NCC1CCCCC1)C(=O)C1CCC(=O)N1Cc1ccc2c(c1)CNC2=O` (stereo not drawn) [FP 244, N-(Cyclohexylmethyl)-2-oxo-2-{5-oxo-1-[(1-oxo-2,3-dihydro-1H-isoindol-5-yl)methyl]-pyrrolidin-2-yl}acetamide], the EC50 in experiment [1] (HeLa H1, 48 h) is 1000 to 10000 nM. Also, the IC50 at PLA2G16 was less than 1000 nM.
As for `O=C(NCCNC(=O)C1CCC1)C(=O)[C@H]1CCC(=O)N1Cc1ccccc1` [FP 332, 2-[(2R)-1-Benzyl-5-oxopyrrolidin-2-yl]-N-[2-(cyclobutylformamido)ethyl]-2-oxoacetamide], the EC50 in experiment [1] (HeLa H1, 48 h) lay in the range of 1000 to 10000 nM. On PLA2G16, the concentration for half-maximal inhibition (IC50) was less than 1000 nM.
In the case of `CC(C)NC(=O)C(=O)C(C)OC1CCCCC1` (stereo not drawn) [FP 125, 3-(Cyclohexyloxy)-2-oxo-N-(propan-2-yl)butanamide], the EC50 in experiment [1] (HeLa H1, 48 h) lay within 1000 to 10000 nM. Besides, on PLA2G16, the 50% inhibitory concentration (IC50) lay within 1000 to 10000 nM.
As to `COc1ccccc1N(C=O)C(C)C(=O)C(=O)NC(C)(C)c1cccc(Cl)c1` (stereo not drawn) [FP 11, N-[2-(3-Chlorophenyl)propan-2-yl]-3-[N-(2-methoxyphenyl)formamido]-2-oxobutanamide], the concentration for a half-maximal effect (EC50) in experiment [1] (HeLa H1, 48 h) is less than 1000 nM. In addition, at PLA2G16, the half-inhibitory concentration (IC50) is less than 1000 nM.
Regarding `O=CN(Cc1ccccc1)C(C(=O)C(=O)NCC1CC1)C1CCOCC1` (stereo not drawn) [FP 71, 3-(N-Benzylformamido)-N-(cyclopropylmethyl)-3-(oxan-4-yl)-2-oxopropanamide], the EC50 in experiment [1] (HeLa H1, 48 h) lay within 1000 to 10000 nM. Besides, the IC50 at PLA2G16 is less than 1000 nM.
Regarding `CC(C(=O)C(=O)NCC1CC1)N(C=O)C1CCCCC1` (stereo not drawn) [FP 40, 3-(N-Cyclohexylformamido)-N-(cyclopropylmethyl)-2-oxobutanamide], the EC50 in experiment [1] (HeLa H1, 48 h) is less than 1000 nM. The concentration for half-maximal inhibition (IC50) at PLA2G16 was less than 1000 nM.
`CC(C)CC(OCC1CCOCC1)C(=O)C(=O)NCC1CC1` (stereo not drawn) [FP 130, N-(Cyclopropylmethyl)-5-methyl-3-[(oxan-4-yl)methoxy]-2-oxohexanamide]: the EC50 in experiment [1] (HeLa H1, 48 h) lay in the range of 1000 to 10000 nM. In addition, on PLA2G16, the IC50 is less than 1000 nM.
Turning to `O=C(NC1CC1)C(=O)C1CCC(=O)N1Cc1ccc(F)cc1` (stereo not drawn) [FP 242, N-Cyclopropyl-2-{1-[(4-fluorophenyl)methyl]-5-oxopyrrolidin-2-yl}-2-oxoacetamide], the half-maximal effective concentration (EC50) in experiment [1] (HeLa H1, 48 h) was in the range of 1000 to 10000 nM. The IC50 at PLA2G16 is less than 1000 nM.
On to `CC(C)CNC(=O)C(=O)C(C)N(C=O)CC(C)(C)C` (stereo not drawn) [FP 45, 3-[N-(2,2-Dimethylpropyl)formamido]-N-(2-methylpropyl)-2-oxobutanamide], for which the EC50 in experiment [1] (HeLa H1, 48 h) is less than 1000 nM. Also, the 50% inhibitory concentration (IC50) on PLA2G16 is less than 1000 nM.
For the compound `COc1cccc(Cl)c1C(=O)NC(C)C(=O)C(=O)NCC1CC1` (stereo not drawn) [FP 212, 3-[(2-Chloro-6-methoxyphenyl)formamido]-N-(cyclopropylmethyl)-2-oxobutanamide], in experiment [1] (HeLa H1, 48 h), the 50% effective concentration (EC50) was 1000 to 10000 nM. The IC50 at PLA2G16 is less than 1000 nM.
In the same order, the values of `CC(C)C(=O)N1CC(NC(=O)C(=O)[C@H]2CCC(=O)N2Cc2ccccc2)C1` [FP 316, 2-[(2R)-1-Benzyl-5-oxopyrrolidin-2-yl]-N-[1-(2-methylpropanoyl)azetidin-3-yl]-2-oxoacetamide] are 1000 to 10000 nM and less than 1000 nM.
With `CCNC(=O)C(=O)[C@H]1CCC(=O)N1Cc1ccccc1` [FP 265, 2-[(2R)-1-Benzyl-5-oxopyrrolidin-2-yl]-N-ethyl-2-oxoacetamide], the concentration for a half-maximal effect (EC50) in experiment [1] (HeLa H1, 48 h) was less than 1000 nM. For the same compound, the concentration for half-maximal inhibition (IC50) on PLA2G16 was less than 1000 nM.
`O=C(NCc1ccccn1)C(=O)C1CCC(=O)N1Cc1ccccc1` (stereo not drawn) [FP 230, 2-(1-Benzyl-5-oxopyrrolidin-2-yl)-2-oxo-N-[(pyridin-2-yl)methyl]acetamide]: the 50% effective concentration (EC50) in experiment [1] (HeLa H1, 48 h) is greater than 10000 nM. Besides, the IC50 on PLA2G16 was less than 1000 nM.
As to `C[C@@H]1CC(=O)N(Cc2ccccc2)[C@@H]1C(=O)C(=O)NCC1CC1` (single isomer, unassigned) [FP 335], in experiment [1] (HeLa H1, 48 h), the EC50 lay within 1000 to 10000 nM. At PLA2G16, the IC50 was less than 1000 nM.
Take `CC(NS(=O)(=O)c1ccc(F)cc1)C(=O)C(=O)NCC1CC1` (stereo not drawn) [FP 219, N-(Cyclopropylmethyl)-3-(4-fluorobenzenesulfonamido)-2-oxobutanamide]: the EC50 in experiment [1] (HeLa H1, 48 h) was 1000 to 10000 nM. Further, the concentration for half-maximal inhibition (IC50) at PLA2G16 was less than 1000 nM.
In the same order, the values of `CC(C)[C@@H](C(=O)C(=O)NCC1CC1)N(C=O)CC(C)(C)C` (single isomer, unassigned) [FP 33] are 1000 to 10000 nM and less than 1000 nM.
For the compound `COc1ccccc1N(C=O)C(C)C(=O)C(=O)NCC(C)C` (stereo not drawn) [FP 100, 3-[N-(2-Methoxyphenyl)formamido]-N-(2-methylpropyl)-2-oxobutanamide], the EC50 in experiment [1] (HeLa H1, 48 h) fell in the range of 1000 to 10000 nM. Besides, at PLA2G16, the half-maximal inhibitory concentration (IC50) was less than 1000 nM.
For the compound `O=C(NC1CC1)C(=O)C1CCC(=O)N1Cc1ccc(Cl)cc1F` (stereo not drawn) [FP 234, 2-{1-[(4-Chloro-2-fluorophenyl)methyl]-5-oxopyrrolidin-2-yl}-N-cyclopropyl-2-oxoacetamide], the concentration for a half-maximal effect (EC50) in experiment [1] (HeLa H1, 48 h) lay within 1000 to 10000 nM. Moreover, on PLA2G16, the IC50 is less than 1000 nM.
In the same order, the values of `CC(C(=O)C(=O)NC(C)(C)c1cccc(Cl)c1)N(C=O)C1CCCCC1` (stereo not drawn) [FP 27, N[2-(3-Chlorophenyl)propan-2-yl]-3-(N-cyclohexylformamido)-2-oxobutanamide] are less than 1000 nM and less than 1000 nM.
As to `COc1ccccc1S(=O)(=O)NC(C)C(=O)C(=O)NCC1CC1` (stereo not drawn) [FP 220, N-(Cyclopropylmethyl)-3-(2-methoxybenzenesulfonamido)-2-oxobutanamide], the 50% effective concentration (EC50) in experiment [1] (HeLa H1, 48 h) was in the range of 1000 to 10000 nM. Besides, the IC50 at PLA2G16 was less than 1000 nM.
For `N#CC1(CNC(=O)C(=O)[C@H]2CCC(=O)N2Cc2ccccc2)CC1` [FP 290, 2-[(2R)-1-Benzyl-5-oxopyrrolidin-2-yl]-N-[(1-cyanocyclopropyl)methyl]-2-oxoacetamide], the EC50 in experiment [1] (HeLa H1, 48 h) lay in the range of 1000 to 10000 nM. For the same compound, the IC50 at PLA2G16 was less than 1000 nM.
Regarding `CC(C(=O)C(=O)NCC1CCCCC1)N(C=O)CC1CCN(C(=O)OC(C)(C)C)CC1` (stereo not drawn) [FP 53, tert-Butyl 4-[(N-{1-[(cyclohexylmethyl)carbamoyl]-1-oxopropan-2-yl}formamido)-methyl]piperidine-1-carboxylate], in experiment [1] (HeLa H1, 48 h), the EC50 is 1000 to 10000 nM. Further, the half-maximal inhibitory concentration (IC50) on PLA2G16 is less than 1000 nM.

(Values after patent publication US11091428B2 (HAPLOGEN GMBH, priority 2016, dated 2021).)
